PubChem BioAssay (NCI)
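Each compound was tested at five concentrations against cells in 96-well plates for 48 hours. Here, GI50 denotes the concentration required for 50% inhibition of growth. TGI is the concentration that stops growth completely.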

system: K-562 leukemia; assay: growth of human tumour cells (NCI), 48 h

Compound	TGI [µM]	GI50 [µM]
Brc1ccc2c(c1)-c1nc3c(cc1CC2)CCc1ccc(Br)cc1-3	> 100	–
CCOC(=O)Cc1nn2c(=O)cc(C)nc2s1	> 100	–
COP(=O)(CC(=O)C1OC(OCc2ccccc2)C(OCc2ccccc2)C(OCc2ccccc2)C1OCc1ccccc1)OC (centres undefined)	> 100	–
OC(c1ccco1)C(F)(F)c1nc2ccccc2o1 (centres undefined)	> 100	–
CN1c2ccccc2C(=O)NC12CCN(CC1COc3ccccc3O1)CC2 (centres undefined)	> 100	–
CCOC1NC(=O)c2ccccc21 (centres undefined)	> 100	–
CCN(C(=O)N[C@H](C(=O)N[C@@H](C)C(=O)OC)C(C)C)c1ccccc1	> 100	–
Cc1cn(C2CC(OC(c3ccccc3)(c3ccccc3)c3ccccc3)C(COC(c3ccccc3)(c3ccccc3)c3ccccc3)O2)c(=O)[nH]c1=O (centres undefined)	> 100	–
CCOC(=O)c1ccc(C(=O)/C(C(=O)OC(C)(C)C)=C2\CCCN2C)n1C	> 100	–
Cc1cc2c(cc1Cl)SC(NNc1cnc3ccccc3n1)=NS2(=O)=O	> 100	–
O=C1c2c(c3c4ccc(Br)cc4oc3c3[nH]c4ccccc4c23)C(=O)N1O	> 100	2.07
O=[N+]([O-])c1ccc2nc3c(nc2c1)-c1c2ccccc2cc2cccc-3c12	> 85.9	–
O=CN(O)CC(=O)O	> 100	–
COc1ccc(CN2C(=O)C(=O)N(C)C2=O)c2ccccc12	> 10	–
C(=N/Nc1ccc(-c2nc3ccccc3[nH]2)cc1)/c1c(-c2ccccc2)[nH]c2ccccc12	11.9	–
OCC1OC(O[C@H]2CN3[C@H](O)[C@@H](O)[C@H](O)[C@H]3C2O)C(O)C(O)C1O (some centres undefined)	> 100	–
CC1OC(n2cc(F)c(=O)[nH]c2=O)C(O[Si](C)(C)C(C)(C)C)C1O[Si](C)(C)C(C)(C)C (centres undefined)	36.1	–

Compound	TGI [µM]	GI50 [µM]
O=S1(=O)c2ccccc2NC(=S)N1c1ccccc1	> 100	–
COC(=O)C(CCSC)NC(=O)CSc1nnc(COc2ccc(Cl)cc2)n1-c1ccccc1 (centres undefined)	69.9	–
CCOC(=O)c1c(NC(=S)Nc2ccc(C)cc2)sc2c1CCN(C)C2	> 100	–
Cc1ccc(-n2cc(-c3ccc(Cl)cc3)c3c2N=CN2NC(c4ccco4)=NC32)cc1 (centres undefined)	> 100	–
COc1cc(/C=C/c2cc(=O)cc(/C=C/c3ccc(O)c(OC)c3)o2)ccc1O	> 100	–
c1ccc(-c2ccc(N=NN3CCCC3)cc2)cc1	> 100	–
COn1cc(CO)c2ccccc21	> 100	–
NNC(=O)c1cccc2c1Oc1ccccc1S2	> 100	–
Cc1ccc(C(=O)c2[nH]c(Nc3cc(C)ccn3)c(C(=S)Nc3ccccc3)c2N)cc1	> 100	–
NS(=O)(=O)c1nnc(NSc2ccc([N+](=O)[O-])cc2)s1	> 100	–
CC1=NC(C)(C)N(O)C1(C)C	> 100	–
Cc1cc(C)nc(NS(=O)(=O)c2ccc(Nc3c4ccccc4nc4c(C(=O)NCCO)cccc34)cc2)n1	> 100	–
COC1OC2COC(C)(C)OC2C2OC(C)(C)OC12 (centres undefined)	> 100	–
COC(=O)c1sc2ncc3c(c2c1N)CC(C)CC3 (centres undefined)	> 100	–
CCOC(=O)c1[nH]c2nc(SC)nc(NC)c2c1N	> 100	–
CC1=CCC[C@H]2[C@](C)(CC3=CC(=O)C4SCCSC4C3=O)[C@@H](C)CC[C@]12C (some centres undefined)	96.2	–

system: HS 578T breast; assay: growth of human tumour cells (NCI), 48 h

Compound	TGI [µM]
CC(O)(C(=O)N(O)c1ccc(Cl)cc1)c1ccc(Cl)cc1 (centres undefined)	62.4
CCOP(=O)(OCC)c1cc(-c2ccccc2)ccc1N	> 100
CC1(C)[C@@H]2C[C@H]1c1cnc(-c3ccccn3)cc1[C@H]2C(O)[C@@H]1c2cc(-c3ccccn3)ncc2[C@H]2C[C@@H]1C2(C)C (some centres undefined)	37.3
COc1ccc(N2C(=O)C3c4[nH]c5ccccc5c4C4C(C)CCCC4C3C2=O)cc1 (centres undefined)	96
CCOC(=O)C1=C(C)NC(=O)N([N+](=O)[O-])C1c1ccccc1C(F)(F)F (centres undefined)	> 100
O=c1c(Cc2ccccc2)c(-c2ccccc2)[nH]n1C1=NCCN1	> 100
CCOC(=O)Cc1nn2c(=O)cc(C)nc2s1	> 100
COP(=O)(CC(=O)C1OC(OCc2ccccc2)C(OCc2ccccc2)C(OCc2ccccc2)C1OCc1ccccc1)OC (centres undefined)	> 100
OC(c1ccco1)C(F)(F)c1nc2ccccc2o1 (centres undefined)	> 100
CN1c2ccccc2C(=O)NC12CCN(CC1COc3ccccc3O1)CC2 (centres undefined)	> 100
CCOC1NC(=O)c2ccccc21 (centres undefined)	> 100
CCN(C(=O)N[C@H](C(=O)N[C@@H](C)C(=O)OC)C(C)C)c1ccccc1	> 100
Cc1cn(C2CC(OC(c3ccccc3)(c3ccccc3)c3ccccc3)C(COC(c3ccccc3)(c3ccccc3)c3ccccc3)O2)c(=O)[nH]c1=O (centres undefined)	> 100
CCOC(=O)c1ccc(C(=O)/C(C(=O)OC(C)(C)C)=C2\CCCN2C)n1C	> 100
Cc1cc2c(cc1Cl)SC(NNc1cnc3ccccc3n1)=NS2(=O)=O	> 100
O=[N+]([O-])c1ccc2nc3c(nc2c1)-c1c2ccccc2cc2cccc-3c12	33
O=CN(O)CC(=O)O	> 100
COc1ccc(CN2C(=O)C(=O)N(C)C2=O)c2ccccc12	> 10

Compound	TGI [µM]
C(=N/Nc1ccc(-c2nc3ccccc3[nH]2)cc1)/c1c(-c2ccccc2)[nH]c2ccccc12	0.889
OCC1OC(O[C@H]2CN3[C@H](O)[C@@H](O)[C@H](O)[C@H]3C2O)C(O)C(O)C1O (some centres undefined)	> 100
CC1OC(n2cc(F)c(=O)[nH]c2=O)C(O[Si](C)(C)C(C)(C)C)C1O[Si](C)(C)C(C)(C)C (centres undefined)	40.7
O=S1(=O)c2ccccc2NC(=S)N1c1ccccc1	> 100
COC(=O)C(CCSC)NC(=O)CSc1nnc(COc2ccc(Cl)cc2)n1-c1ccccc1 (centres undefined)	55.6
CCOC(=O)c1c(NC(=S)Nc2ccc(C)cc2)sc2c1CCN(C)C2	> 100
Cc1ccc(-n2cc(-c3ccc(Cl)cc3)c3c2N=CN2NC(c4ccco4)=NC32)cc1 (centres undefined)	7.16
COc1cc(/C=C/c2cc(=O)cc(/C=C/c3ccc(O)c(OC)c3)o2)ccc1O	> 100
c1ccc(-c2ccc(N=NN3CCCC3)cc2)cc1	> 100
COn1cc(CO)c2ccccc21	> 100
NNC(=O)c1cccc2c1Oc1ccccc1S2	> 100
Cc1ccc(C(=O)c2[nH]c(Nc3cc(C)ccn3)c(C(=S)Nc3ccccc3)c2N)cc1	> 100
NS(=O)(=O)c1nnc(NSc2ccc([N+](=O)[O-])cc2)s1	> 100
Cc1cc(C)nc(NS(=O)(=O)c2ccc(Nc3c4ccccc4nc4c(C(=O)NCCO)cccc34)cc2)n1	> 100
COC1OC2COC(C)(C)OC2C2OC(C)(C)OC12 (centres undefined)	50
O=C(NCCCNCCCCNCCCNC(=O)C(F)(F)F)C(F)(F)F	> 100
CCOC(=O)c1[nH]c2nc(SC)nc(NC)c2c1N	> 100
